Values quoted from earlier work, collected in patent US11951104B2 (LIVZON PHARMACEUTICAL GROUP INC, priority 2018, dated 2024).

Assays:
[1] = target: 5-HT2A receptors (Homo sapiens, UniProt P28223); details: background
[2] = target: T1, 5-HT1A receptors (Homo sapiens, UniProt P08908); details: background
T1 sequence (P08908 1-422): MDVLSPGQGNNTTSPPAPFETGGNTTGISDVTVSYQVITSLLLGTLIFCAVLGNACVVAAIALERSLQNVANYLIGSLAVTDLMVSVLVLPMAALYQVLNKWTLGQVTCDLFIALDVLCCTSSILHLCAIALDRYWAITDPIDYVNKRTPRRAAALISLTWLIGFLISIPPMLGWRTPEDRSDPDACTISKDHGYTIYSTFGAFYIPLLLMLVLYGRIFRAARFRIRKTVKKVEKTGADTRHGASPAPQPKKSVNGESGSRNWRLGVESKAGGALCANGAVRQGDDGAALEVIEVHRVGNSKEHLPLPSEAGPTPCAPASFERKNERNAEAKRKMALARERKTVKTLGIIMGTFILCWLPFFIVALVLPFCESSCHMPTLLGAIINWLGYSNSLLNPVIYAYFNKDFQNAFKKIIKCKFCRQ

Sequence of 5-HT2A receptors (P28223 whole entry): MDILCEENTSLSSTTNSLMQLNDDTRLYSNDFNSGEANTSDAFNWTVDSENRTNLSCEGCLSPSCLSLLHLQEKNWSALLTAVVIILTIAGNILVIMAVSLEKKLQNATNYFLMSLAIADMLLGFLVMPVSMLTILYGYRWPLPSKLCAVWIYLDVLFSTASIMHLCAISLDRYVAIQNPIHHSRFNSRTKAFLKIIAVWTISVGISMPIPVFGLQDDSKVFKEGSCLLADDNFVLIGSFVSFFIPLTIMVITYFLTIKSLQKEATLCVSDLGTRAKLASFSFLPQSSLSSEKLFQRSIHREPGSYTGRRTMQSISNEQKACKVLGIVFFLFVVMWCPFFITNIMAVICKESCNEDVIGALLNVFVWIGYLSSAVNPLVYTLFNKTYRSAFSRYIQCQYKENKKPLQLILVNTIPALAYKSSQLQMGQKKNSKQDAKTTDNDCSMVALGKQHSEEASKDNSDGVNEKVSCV

O=C1CCc2ccc(OCCCCN3CCN(c4cccc(Cl)c4Cl)CC3)cc2N1 [aripiprazole]
affinity for 5-HT2A receptors [1]: high affinity
affinity for 5-HT1A receptors [2]: high affinity
